Experimental data: paper PMC5622171 (Nature Communications, 2017)

Legend:
Assay in all cases: KINOMEscan kinase profiling
Format in all cases: binding
SBK1 = target: T1, SBK1 (Homo sapiens, UniProt Q52WX2); details: read-out: %Inhibition by 10 μM SPA70
T1 construct: purchased DiscoverX (Ambit Biosciences) KINOMEscan
In short: (§1)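 KINOMEscan profiling followed a published protocol. Kinases whose inhibition exceeded a set cut-off were then tested in a dilution series beginning at 30 µM.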

p38-delta = target: T2, p38-delta (Homo sapiens, UniProt O15264); details: read-out: %Inhibition by 10 μM SPA70
T2 construct: purchased DiscoverX (Ambit Biosciences) KINOMEscan
In short: as §1

NEK2 = target: T3, NEK2 (Homo sapiens, UniProt P51955); details: read-out: %Inhibition by 10 μM SPA70
T3 construct: purchased DiscoverX (Ambit Biosciences) KINOMEscan
In short: as §1

PCTK1 = target: T4, PCTK1 (Homo sapiens, UniProt Q00536); details: read-out: %Inhibition by 10 μM SPA70
T4 construct: purchased DiscoverX (Ambit Biosciences) KINOMEscan
In short: as §1

ADCK3 = target: T5, ADCK3 (Homo sapiens, UniProt Q8NI60); details: read-out: %Inhibition by 10 μM SPA70
T5 construct: purchased DiscoverX (Ambit Biosciences) KINOMEscan
In short: as §1

MKNK1 = target: T6, MKNK1 (Homo sapiens, UniProt Q9BUB5); details: read-out: %Inhibition by 10 μM SPA70
T6 construct: purchased DiscoverX (Ambit Biosciences) KINOMEscan
In short: as §1

PIK3CA = target: T7, PIK3CA (Homo sapiens, UniProt P42336); details: read-out: %Inhibition by 10 μM SPA70
T7 construct: purchased DiscoverX (Ambit Biosciences) KINOMEscan
In short: as §1

TAK1 = target: T8, TAK1 (Homo sapiens, UniProt O43318); details: read-out: %Inhibition by 10 μM SPA70
T8 construct: purchased DiscoverX (Ambit Biosciences) KINOMEscan
In short: as §1

SLK = target: T9, SLK (Homo sapiens, UniProt Q9H2G2); details: read-out: %Inhibition by 10 μM SPA70
T9 construct: purchased DiscoverX (Ambit Biosciences) KINOMEscan
In short: as §1

MEK4 = target: T10, MEK4 (Homo sapiens, UniProt P45985); details: read-out: %Inhibition by 10 μM SPA70
T10 construct: purchased DiscoverX (Ambit Biosciences) KINOMEscan
In short: as §1

PIK3CB = target: T11, PIK3CB (Homo sapiens, UniProt P42338); details: read-out: %Inhibition by 10 μM SPA70
T11 construct: purchased DiscoverX (Ambit Biosciences) KINOMEscan
In short: as §1

EPHA8 = target: T12, EPHA8 (Homo sapiens, UniProt P29322); details: read-out: %Inhibition by 10 μM SPA70
T12 construct: purchased DiscoverX (Ambit Biosciences) KINOMEscan
In short: as §1

CDC2L5 = target: T13, CDC2L5 (Homo sapiens, UniProt Q14004)
T13 construct: purchased DiscoverX (Ambit Biosciences) KINOMEscan
In short: as §1

AMPK-alpha1 = target: T14, AMPK-alpha1 (Homo sapiens, UniProt Q13131); details: read-out: %Inhibition by 10 μM SPA70
T14 construct: purchased DiscoverX (Ambit Biosciences) KINOMEscan
In short: as §1

HIPK1 = target: T15, HIPK1 (Homo sapiens, UniProt Q86Z02); details: read-out: %Inhibition by 10 μM SPA70
T15 construct: purchased DiscoverX (Ambit Biosciences) KINOMEscan
T15 sequence (Q86Z02 whole entry): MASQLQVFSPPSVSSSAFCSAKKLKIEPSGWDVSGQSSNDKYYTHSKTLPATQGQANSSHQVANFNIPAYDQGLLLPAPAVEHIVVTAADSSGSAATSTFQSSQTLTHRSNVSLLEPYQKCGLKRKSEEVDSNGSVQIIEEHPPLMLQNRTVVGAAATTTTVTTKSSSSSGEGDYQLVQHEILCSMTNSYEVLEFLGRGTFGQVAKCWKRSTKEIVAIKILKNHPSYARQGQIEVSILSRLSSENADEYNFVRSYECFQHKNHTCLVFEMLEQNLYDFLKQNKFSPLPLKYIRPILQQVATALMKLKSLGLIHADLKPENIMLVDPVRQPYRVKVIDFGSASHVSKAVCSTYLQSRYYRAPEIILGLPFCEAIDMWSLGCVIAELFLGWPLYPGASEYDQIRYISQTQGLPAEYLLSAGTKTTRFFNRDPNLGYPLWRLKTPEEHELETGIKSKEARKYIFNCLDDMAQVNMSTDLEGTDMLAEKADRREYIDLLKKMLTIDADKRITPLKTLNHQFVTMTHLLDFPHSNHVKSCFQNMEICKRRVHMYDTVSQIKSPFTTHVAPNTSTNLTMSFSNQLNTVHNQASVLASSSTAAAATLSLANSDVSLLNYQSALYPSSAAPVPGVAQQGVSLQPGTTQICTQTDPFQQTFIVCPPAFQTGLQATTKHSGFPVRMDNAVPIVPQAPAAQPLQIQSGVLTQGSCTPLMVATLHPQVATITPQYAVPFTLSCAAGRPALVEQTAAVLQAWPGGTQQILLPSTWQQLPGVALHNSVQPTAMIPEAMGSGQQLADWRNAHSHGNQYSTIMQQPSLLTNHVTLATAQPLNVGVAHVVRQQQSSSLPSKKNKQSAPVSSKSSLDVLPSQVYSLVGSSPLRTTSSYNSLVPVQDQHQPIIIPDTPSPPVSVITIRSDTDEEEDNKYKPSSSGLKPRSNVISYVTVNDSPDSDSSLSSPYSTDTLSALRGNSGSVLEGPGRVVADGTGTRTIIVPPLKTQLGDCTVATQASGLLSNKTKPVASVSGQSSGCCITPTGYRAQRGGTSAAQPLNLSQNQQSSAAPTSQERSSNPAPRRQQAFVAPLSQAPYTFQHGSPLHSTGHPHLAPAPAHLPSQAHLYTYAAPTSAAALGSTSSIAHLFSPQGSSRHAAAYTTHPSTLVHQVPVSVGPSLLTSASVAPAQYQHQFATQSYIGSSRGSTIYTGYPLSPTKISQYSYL
In short: as §1

DDR2 = target: T16, DDR2 (Homo sapiens, UniProt Q16832); details: read-out: %Inhibition by 10 μM SPA70
T16 construct: purchased DiscoverX (Ambit Biosciences) KINOMEscan
In short: as §1

MAP3K1 = target: T17, MAP3K1 (Homo sapiens, UniProt Q13233); details: read-out: %Inhibition by 10 μM SPA70
T17 construct: purchased DiscoverX (Ambit Biosciences) KINOMEscan
In short: as §1

CDKL2 = target: T18, CDKL2 (Homo sapiens, UniProt Q92772); details: read-out: %Inhibition by 10 μM SPA70
T18 construct: purchased DiscoverX (Ambit Biosciences) KINOMEscan
In short: as §1

[1] = target: T19, TYK2(JH1domain-catalytic) (Homo sapiens, UniProt P29597)
T19 construct: TYK2(JH1domain-catalytic); purchased DiscoverX (Ambit Biosciences) KINOMEscan
In short: as §1

ALK = target: T20, ALK (Homo sapiens, UniProt Q9UM73); details: read-out: %Inhibition by 10 μM SPA70
T20 construct: purchased DiscoverX (Ambit Biosciences) KINOMEscan
In short: as §1

MLK2 = target: T21, MLK2 (Homo sapiens, UniProt Q02779); details: read-out: %Inhibition by 10 μM SPA70
T21 construct: purchased DiscoverX (Ambit Biosciences) KINOMEscan
In short: as §1

EPHA6 = target: T22, EPHA6 (Homo sapiens, UniProt Q9UF33); details: read-out: %Inhibition by 10 μM SPA70
T22 construct: purchased DiscoverX (Ambit Biosciences) KINOMEscan
In short: as §1

BMX = target: T23, BMX (Homo sapiens, UniProt P51813); details: read-out: %Inhibition by 10 μM SPA70
T23 construct: purchased DiscoverX (Ambit Biosciences) KINOMEscan
In short: as §1

MST4 = target: T24, MST4 (Homo sapiens, UniProt Q9P289); details: read-out: %Inhibition by 10 μM SPA70
T24 construct: purchased DiscoverX (Ambit Biosciences) KINOMEscan
In short: as §1

[2] = target: T25, JAK2(JH1domain-catalytic) (Homo sapiens, UniProt O60674)
T25 construct: JAK2(JH1domain-catalytic); purchased DiscoverX (Ambit Biosciences) KINOMEscan
In short: as §1

MUSK = target: T26, MUSK (Homo sapiens, UniProt O15146); details: read-out: %Inhibition by 10 μM SPA70
T26 construct: purchased DiscoverX (Ambit Biosciences) KINOMEscan
In short: as §1

PRKR = target: T27, PRKR (Homo sapiens, UniProt P19525)
T27 construct: purchased DiscoverX (Ambit Biosciences) KINOMEscan
In short: as §1

CDK3 = target: T28, CDK3 (Homo sapiens, UniProt Q00526)
T28 construct: purchased DiscoverX (Ambit Biosciences) KINOMEscan
T28 sequence (Q00526 whole entry): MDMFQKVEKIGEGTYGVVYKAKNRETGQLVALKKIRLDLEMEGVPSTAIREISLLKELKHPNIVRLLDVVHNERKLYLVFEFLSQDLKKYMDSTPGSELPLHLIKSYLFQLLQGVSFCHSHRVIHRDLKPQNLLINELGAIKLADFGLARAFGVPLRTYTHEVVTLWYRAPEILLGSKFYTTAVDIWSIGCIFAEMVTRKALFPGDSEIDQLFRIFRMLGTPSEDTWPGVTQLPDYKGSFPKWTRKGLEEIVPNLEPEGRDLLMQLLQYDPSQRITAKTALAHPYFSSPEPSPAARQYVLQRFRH
In short: as §1

MAP4K2 = target: T29, MAP4K2 (Homo sapiens, UniProt Q12851); details: read-out: %Inhibition by 10 μM SPA70
T29 construct: purchased DiscoverX (Ambit Biosciences) KINOMEscan
In short: as §1

[3] = target: T30, RSK3(Kin.Dom.2-C-terminal) (Homo sapiens, UniProt Q15349); details: read-out: %Inhibition by 10 μM SPA70
T30 construct: RSK3(Kin.Dom.2-C-terminal); purchased DiscoverX (Ambit Biosciences) KINOMEscan
In short: as §1

[4] = target: T31, RSK2(Kin.Dom.1-N-terminal) (Homo sapiens, UniProt P51812); details: read-out: %Inhibition by 10 μM SPA70
T31 construct: RSK2(Kin.Dom.1-N-terminal); purchased DiscoverX (Ambit Biosciences) KINOMEscan
T31 sequence (P51812 1-397 limits assumed): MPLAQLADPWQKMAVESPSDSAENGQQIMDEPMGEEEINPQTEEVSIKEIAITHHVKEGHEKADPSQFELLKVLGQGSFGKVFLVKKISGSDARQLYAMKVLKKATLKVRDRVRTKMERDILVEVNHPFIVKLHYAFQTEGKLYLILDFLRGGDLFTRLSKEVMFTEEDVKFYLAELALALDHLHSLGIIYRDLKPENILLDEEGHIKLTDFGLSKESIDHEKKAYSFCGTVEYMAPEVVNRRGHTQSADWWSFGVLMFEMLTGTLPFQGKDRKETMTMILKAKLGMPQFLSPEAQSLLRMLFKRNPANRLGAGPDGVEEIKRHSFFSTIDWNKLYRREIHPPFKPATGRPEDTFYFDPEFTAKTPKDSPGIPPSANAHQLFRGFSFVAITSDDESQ
In short: as §1

VEGFR2 = target: T32, VEGFR2 (Homo sapiens, UniProt P35968); details: read-out: %Inhibition by 10 μM SPA70
T32 construct: purchased DiscoverX (Ambit Biosciences) KINOMEscan
T32 sequence (P35968 20-1356): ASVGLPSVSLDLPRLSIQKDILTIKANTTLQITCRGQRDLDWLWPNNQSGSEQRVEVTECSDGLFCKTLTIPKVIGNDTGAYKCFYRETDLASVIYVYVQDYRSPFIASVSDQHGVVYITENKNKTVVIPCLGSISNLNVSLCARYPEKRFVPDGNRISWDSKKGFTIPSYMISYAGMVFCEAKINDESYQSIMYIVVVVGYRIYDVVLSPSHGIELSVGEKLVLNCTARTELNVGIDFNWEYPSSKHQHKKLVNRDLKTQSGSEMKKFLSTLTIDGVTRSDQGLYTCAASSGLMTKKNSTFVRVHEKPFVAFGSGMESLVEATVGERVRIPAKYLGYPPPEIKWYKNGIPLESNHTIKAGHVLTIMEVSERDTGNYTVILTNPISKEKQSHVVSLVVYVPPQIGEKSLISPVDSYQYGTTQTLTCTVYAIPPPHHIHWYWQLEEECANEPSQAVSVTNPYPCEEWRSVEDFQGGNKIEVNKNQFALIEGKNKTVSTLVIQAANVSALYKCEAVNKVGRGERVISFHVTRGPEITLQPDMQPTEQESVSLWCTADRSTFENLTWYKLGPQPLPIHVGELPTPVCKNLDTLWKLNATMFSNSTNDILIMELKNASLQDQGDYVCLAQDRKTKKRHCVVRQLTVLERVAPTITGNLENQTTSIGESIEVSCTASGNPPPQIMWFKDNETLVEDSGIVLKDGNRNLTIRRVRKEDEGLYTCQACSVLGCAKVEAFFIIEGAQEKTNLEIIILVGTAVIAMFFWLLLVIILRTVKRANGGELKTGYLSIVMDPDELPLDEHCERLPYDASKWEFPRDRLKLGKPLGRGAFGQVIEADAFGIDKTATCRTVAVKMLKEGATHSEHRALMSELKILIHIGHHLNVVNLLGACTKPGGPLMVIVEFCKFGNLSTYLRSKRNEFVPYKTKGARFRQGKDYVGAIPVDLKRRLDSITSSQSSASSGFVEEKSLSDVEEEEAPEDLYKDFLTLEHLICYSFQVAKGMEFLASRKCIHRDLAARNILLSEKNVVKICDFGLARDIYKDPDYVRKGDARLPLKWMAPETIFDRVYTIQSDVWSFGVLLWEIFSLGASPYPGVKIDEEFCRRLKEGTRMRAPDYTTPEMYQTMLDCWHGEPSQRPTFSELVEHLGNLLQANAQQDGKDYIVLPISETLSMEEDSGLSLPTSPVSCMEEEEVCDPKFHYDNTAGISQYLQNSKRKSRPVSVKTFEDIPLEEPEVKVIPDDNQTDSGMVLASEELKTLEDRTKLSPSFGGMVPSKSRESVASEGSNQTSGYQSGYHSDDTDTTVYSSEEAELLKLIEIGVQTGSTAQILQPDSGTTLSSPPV
In short: as §1

PLK2 = target: T33, PLK2 (Homo sapiens, UniProt Q9NYY3)
T33 construct: purchased DiscoverX (Ambit Biosciences) KINOMEscan
In short: as §1

IGF1R = target: T34, IGF1R (Homo sapiens, UniProt P08069); details: read-out: %Inhibition by 10 μM SPA70
T34 construct: purchased DiscoverX (Ambit Biosciences) KINOMEscan
In short: as §1

TAOK3 = target: T35, TAOK3 (Homo sapiens, UniProt Q9H2K8); details: read-out: %Inhibition by 10 μM SPA70
T35 construct: purchased DiscoverX (Ambit Biosciences) KINOMEscan
In short: as §1

BRK = target: T36, BRK (Homo sapiens, UniProt Q13882); details: read-out: %Inhibition by 10 μM SPA70
T36 construct: purchased DiscoverX (Ambit Biosciences) KINOMEscan
In short: as §1

ROCK1 = target: T37, ROCK1 (Homo sapiens, UniProt Q13464); details: read-out: %Inhibition by 10 μM SPA70
T37 construct: purchased DiscoverX (Ambit Biosciences) KINOMEscan
In short: as §1

MARK2 = target: T38, MARK2 (Homo sapiens, UniProt Q7KZI7); details: read-out: %Inhibition by 10 μM SPA70
T38 construct: purchased DiscoverX (Ambit Biosciences) KINOMEscan
T38 sequence (Q7KZI7 whole entry): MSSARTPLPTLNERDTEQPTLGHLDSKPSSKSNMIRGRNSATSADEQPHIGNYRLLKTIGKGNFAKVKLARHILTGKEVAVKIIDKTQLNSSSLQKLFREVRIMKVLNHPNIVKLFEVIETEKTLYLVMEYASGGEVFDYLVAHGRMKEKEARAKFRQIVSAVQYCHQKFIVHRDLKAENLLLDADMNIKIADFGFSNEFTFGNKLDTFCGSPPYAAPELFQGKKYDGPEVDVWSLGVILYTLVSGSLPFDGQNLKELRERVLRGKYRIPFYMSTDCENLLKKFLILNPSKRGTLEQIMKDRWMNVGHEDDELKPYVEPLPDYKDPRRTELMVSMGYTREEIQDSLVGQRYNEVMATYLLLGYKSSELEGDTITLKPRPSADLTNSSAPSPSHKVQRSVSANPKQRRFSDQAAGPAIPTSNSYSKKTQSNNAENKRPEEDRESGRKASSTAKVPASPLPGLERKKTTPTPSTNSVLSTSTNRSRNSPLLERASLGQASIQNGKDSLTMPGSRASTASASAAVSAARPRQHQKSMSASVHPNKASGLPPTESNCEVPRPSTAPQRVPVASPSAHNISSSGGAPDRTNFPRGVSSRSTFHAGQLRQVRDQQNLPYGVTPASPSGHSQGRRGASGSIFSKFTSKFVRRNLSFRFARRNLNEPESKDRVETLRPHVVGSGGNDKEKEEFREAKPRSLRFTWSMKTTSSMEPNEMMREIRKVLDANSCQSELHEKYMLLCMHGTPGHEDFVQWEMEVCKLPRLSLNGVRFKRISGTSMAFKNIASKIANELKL
In short: as §1

MKK7 = target: T39, MKK7 (Homo sapiens, UniProt O14733)
T39 construct: purchased DiscoverX (Ambit Biosciences) KINOMEscan
In short: as §1

NDR2 = target: T40, NDR2 (Homo sapiens, UniProt Q9Y2H1); details: read-out: %Inhibition by 10 μM SPA70
T40 construct: purchased DiscoverX (Ambit Biosciences) KINOMEscan
T40 sequence (Q9Y2H1 whole entry): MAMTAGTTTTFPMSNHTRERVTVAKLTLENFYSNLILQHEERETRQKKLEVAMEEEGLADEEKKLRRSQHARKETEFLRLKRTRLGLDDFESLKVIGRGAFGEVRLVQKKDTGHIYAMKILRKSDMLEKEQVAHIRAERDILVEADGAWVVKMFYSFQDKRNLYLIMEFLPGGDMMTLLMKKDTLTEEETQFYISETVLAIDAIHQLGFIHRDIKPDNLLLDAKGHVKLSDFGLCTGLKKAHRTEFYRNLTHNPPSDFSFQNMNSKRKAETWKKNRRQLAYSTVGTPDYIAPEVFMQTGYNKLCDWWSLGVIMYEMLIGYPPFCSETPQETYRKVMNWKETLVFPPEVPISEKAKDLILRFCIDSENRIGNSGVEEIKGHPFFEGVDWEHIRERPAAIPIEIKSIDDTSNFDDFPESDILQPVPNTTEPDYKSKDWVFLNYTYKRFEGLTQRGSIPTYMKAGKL
In short: as §1

T1 sequence (Q52WX2 whole entry): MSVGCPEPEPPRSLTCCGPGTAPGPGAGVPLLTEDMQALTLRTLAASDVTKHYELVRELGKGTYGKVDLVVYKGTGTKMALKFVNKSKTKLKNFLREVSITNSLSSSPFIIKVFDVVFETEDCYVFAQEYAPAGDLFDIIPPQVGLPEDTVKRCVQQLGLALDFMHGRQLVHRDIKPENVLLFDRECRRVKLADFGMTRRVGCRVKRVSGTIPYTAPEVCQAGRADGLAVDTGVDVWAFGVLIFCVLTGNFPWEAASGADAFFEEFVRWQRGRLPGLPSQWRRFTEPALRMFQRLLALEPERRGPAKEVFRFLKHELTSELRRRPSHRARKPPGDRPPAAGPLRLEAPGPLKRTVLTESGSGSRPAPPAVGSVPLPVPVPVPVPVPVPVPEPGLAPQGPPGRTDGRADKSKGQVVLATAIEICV

## COc1ccc(OC)c(-n2nnc(S(=O)(=O)c3ccc(C(C)(C)C)cc3)c2C)c1 [SPA70]
SBK1
  inhibition at 10 µM: 0%
p38-delta
  inhibition at 10 µM: 21%
NEK2
  inhibition at 10 µM: 4%
PCTK1
  inhibition at 10 µM: 4%
ADCK3
  inhibition at 10 µM: 0%
MKNK1
  inhibition at 10 µM: 44%
PIK3CA
  inhibition at 10 µM: 0%
TAK1
  inhibition at 10 µM: 0%
SLK
  inhibition at 10 µM: 9%
MEK4
  inhibition at 10 µM: 0%
PIK3CB
  inhibition at 10 µM: 8%
EPHA8
  inhibition at 10 µM: 13%
CDC2L5
  %Inhibition by 10 μM SPA70: 0%
AMPK-alpha1
  inhibition at 10 µM: 0%
HIPK1
  inhibition at 10 µM: 32%
DDR2
  inhibition at 10 µM: 0%
MAP3K1
  inhibition at 10 µM: 0%
CDKL2
  inhibition at 10 µM: 22%
[1]
  %Inhibition by 10 μM SPA70: 0%
ALK
  inhibition at 10 µM: 0%
MLK2
  inhibition at 10 µM: 0%
EPHA6
  inhibition at 10 µM: 0%
BMX
  inhibition at 10 µM: 0%
MST4
  inhibition at 10 µM: 15%
[2]
  %Inhibition by 10 μM SPA70: 33%
MUSK
  inhibition at 10 µM: 0%
PRKR
  %Inhibition by 10 μM SPA70: 26%
CDK3
  %Inhibition by 10 μM SPA70: 3%
MAP4K2
  inhibition at 10 µM: 0%
[3]
  inhibition at 10 µM: 19%
[4]
  inhibition at 10 µM: 11%
VEGFR2
  inhibition at 10 µM: 0%
PLK2
  %Inhibition by 10 μM SPA70: 9%
IGF1R
  inhibition at 10 µM: 0%
TAOK3
  inhibition at 10 µM: 2%
BRK
  inhibition at 10 µM: 0%
ROCK1
  inhibition at 10 µM: 3%
MARK2
  inhibition at 10 µM: 16%
MKK7
  %Inhibition by 10 μM SPA70: 0%
NDR2
  inhibition at 10 µM: 0%
